In brackets after ≈: the same amount, converted by molar mass. Where two headings read alike, the source gives them in different places.
Legend:
[1] = Measured solubility in buffer, LC-MS/MS; assay type: physicochemical; conditions: aqueous buffer, thermodynamic from solid
Description: […] The mixture was vortexed and a magnetic stirring bar was subsequently added to the vial. The vial was placed on a magnetic stirrer with constant stirring for 16-24 hours at room temperature. The pH of the top layer solution was measured. Subsequently, 200 μL of the top layer solution was placed in a 1.5 mL microcentrifuge tube and centrifuged at 18,000 g for 10 min at room temperature. A 10 μL aliquot of supernatant was added to 990 μL of methanol:water (1/:1, v/v) and vortexed. Then, one volume of acetonitrile containing internal standard was added to one volume of the above 100-fold diluted solution and the resulting solution was vortexed and placed in 96-well plate for LC-MS/MS analysis. […] LC-MS-MS analysis was performed utilizing multiple reaction monitoring for detection of characteristic ions for each test compound, additional related analytes and internal standard.

[2] = Stability in simulated intestinal fluid (SIF); assay type: in vitro ADME
Description: (§1) The stability of exemplary compounds in simulated gastric fluid (SGF) and simulated intestinal fluid (SIF) was tested according to the following protocol.

[3] = Rat liver microsomal stability; assay type: in vitro ADME; conditions: for half-life / microsomal CLint: rat liver microsomes 0.5 mg/mL, with NADPH; for half-life / microsomal CLint / Rat Liver Microsomal Stability no NADPH, % remain 1 h: compound 0.5 μM; for half-life: 37° C., read-out: Rat Liver Microsomal Stability t1/2; for microsomal CLint: read-out: Rat Liver Microsomal Stability CLint (uL/min/mg liver); for Comments: production of GNX (ganaxolone) in rat liver microsomes / Rat Liver Microsomal Stability no NADPH, % remain 1 h: rat liver microsomes
Description: (§2) For several compounds only human liver microsomal stability was tested. […] The microsomal assays were carried out with and without the addition of NADPH at a final concentration of 1 mM. For negative control samples, NADPH reagent was not added. […] Note that compounds undergo only Phase I metabolism in liver microsomes.
(§3) CLint=the intrinsic hepatic clearance (uL/min/mg), where CLint is equal to 0.693/(t1/2×Cmp)

[4] = Dog plasma stability; assay type: in vitro ADME
[5] = in vitro; conditions: for Observations: stability / GNX production in human plasma / half-life / Observations: stability / GNX production in rat plasma: plasma
Description: The plasma stability of exemplary compounds was tested using rat, mice, dog, and human plasma, according to the following protocol. For each test compound, samples at a final concentration of 2 μg/mL were prepared in blank plasma of selected species. All samples were incubated at 37° C. on a 150-RPM orbital shaker, and an aliquot was removed at pre-determined time points (0, 15, 30, 60, and 120 minutes). Samples were precipitated with three volumes of acetonitrile containing propranolol as internal standard, and centrifuged for 10 min at 2000 g before LC/MS/MS analysis of the supernatant solutions.

[6] = in vitro; assay type: in vitro ADME, human
Description: as §2

[7] = Stability in simulated gastric fluid (SGF); assay type: in vitro ADME
Description: as §1

[8] = Dog liver microsomal stability; assay type: in vitro ADME
Description: as §2, §3
Certain compounds were also tested in mice and dog liver microsome assays according to the protocol outlined above. […].

[9] = pH 7.4, 50 mM phosphate buffer, 16-24 hours, room temperature, read-out: Solubility pH 7.4
[10] = buffer, pH 2.0, room temperature, read-out: Solubility pH 2.0
[11] = SIF with pancreatin pH 6.8, 37° C., 60 min
[12] = simulated gi fluid, SIF with pancreatin pH 6.8, 37° C., 2 μg/mL, read-out: SIF t1/2
[13] = dog plasma, 2 μg/mL, 37° C., read-out: Dog plasma Half life (t1/2)
[14] = human liver microsomes 0.5 mg/mL, with NADPH, compound 0.5 μM, 37° C., read-out: Human Liver Microsomal Stability t1/2
[15] = human liver microsomes 0.5 mg/mL, with NADPH, compound 0.5 μM, read-out: Human Liver Microsomal Stability CLint (uL/min/mg liver) (converted)
[16] = human liver microsomes, no NADPH, compound 0.5 μM
[17] = SGF with pepsin pH 1.2, 37° C., 60 min
[18] = simulated gi fluid, SGF with pepsin pH 1.2, 37° C., 2 μg/mL, read-out: SGF t1/2
[19] = dog liver microsomes 0.5 mg/mL, compound 0.5 μM, read-out: Dog Liver Microsomal Stability CLint (uL/min/mg liver)
[20] = dog liver microsomes 0.5 mg/mL, compound 0.5 μM, read-out: Dog Liver Microsomal Stability t1/2

Compound | solubility [1, 9] [µg/mL] | solubility [1, 10] [µg/mL] | SIF (% remain, 60 min) [2, 11] [%] | half-life [2, 12] [min] | half-life [3] [min] | microsomal CLint [3] [µL/min/mg] | Rat Liver Microsomal Stability no NADPH, % remain 1 h [3] [%] | Human plasma t90 ([5]; human plasma, 2 μg/mL, 37° C.) [min] | Observations: stability / GNX production in human plasma ([5]; human) | half-life ([5]; human) [h] | Rat plasma t90 ([5]; 2 μg/mL, 37° C.) [min] | Observations: stability / GNX production in rat plasma ([5]; rat) | half-life ([5]; rat) [h] | half-life [6, 14] [min] | microsomal CLint [6, 15] [µL/min/mg] | Human Liver Microsomal Stability no NADPH, % remain 1 h [6, 16] [%] | SGF (% remain, 60 min) [7, 17] [%] | microsomal CLint [8, 19] [µL/min/mg] | half-life [8, 20] [min] | Dog Liver Microsomal Stability no NADPH, % remain 1 h ([8]; dog liver microsomes, no NADPH) [%] | also measured
CC(=O)[C@H]1CC[C@H]2[C@@H]3CC[C@H]4C[C@](C)(OC(=O)CNC(C)(C)C(=O)O)CC[C@]4(C)[C@H]3CC[C@]12C [Compound 120] | 35 (≈ 73.6 µM) | 39 (≈ 82 µM) | 74 | 199 | 36 | 38 | 72 | 218 | No GNX produced in rat, | 24.8 | 78 | No GNX produced in rat, | 8.67 | 16 | 86 | 8 | 83 | 17 | 81 | 83 | Comments: production of GNX (ganaxolone) in rat liver microsomes [3]: In rat no GNX produced;; Observations: stability / GNX production in dog plasma ([4]; dog plasma): No GNX produced in rat,; Dog plasma t90 ([4]; dog plasma, 2 μg/mL, 37° C.): 88 min; half-life [4, 13]: 9.72 h; half-life [7, 18]: 4.17 h
CC(=O)[C@H]1CC[C@H]2[C@@H]3CC[C@H]4C[C@](C)(OC(=O)COC(=O)CN5CCOCC5)CC[C@]4(C)[C@H]3CC[C@]12C [Compound 200] | 29 (≈ 56 µM) | 11800 (≈ 22800 µM) | 31 | – | 12.1 | 115 | 7.5 | 2.19 | – | 0.243 | 1.4 | In rat, compound converted | 0.158 | 6 | 229 | 1 | 99.0 | – | – | – | –
CC(=O)[C@H]1CC[C@H]2[C@@H]3CC[C@H]4C[C@](C)(OC(=O)CO)CC[C@]4(C)[C@H]3CC[C@]12C [Compound 201] | 33 (≈ 84.5 µM) | 36 (≈ 92.2 µM) | 98.0 | 1580 | 32.4 | 42.7 | 99.5 | 313 | compound very slowly | 34.6 | 82 | compound very slowly | 9.05 | 17.4 | 79.5 | 70 | – | – | – | – | Comments: production of GNX (ganaxolone) in human liver microsomes ([6]; human liver microsomes): In human, GNX produced
CC(=O)[C@H]1CC[C@H]2[C@@H]3CC[C@H]4C[C@](C)(OC(=O)COC(=O)C(C)(C)OC(=O)CN(CCO)CCO)CC[C@]4(C)[C@H]3CC[C@]12C [Compound 228] | – | – | 1.7 | 32 | 16.4 | 84.4 | 15 | 1.4 | No GNX produced | 0.15 | 1.8 | GNX produced in rat | 0.2 | 6.2 | 225 | 6 | 89 | 129 | 10.7 | 12.9 | Comments: production of GNX (ganaxolone) in rat liver microsomes [3]: In rat no GNX produced;; Observations: stability / GNX production in dog plasma ([4]; dog plasma): No GNX produced; Dog plasma t90 ([4]; dog plasma, 2 μg/mL, 37° C.): 3 min; half-life [4, 13]: 0.333 h; Comments: production of GNX (ganaxolone) in human liver microsomes ([6]; human liver microsomes): In human GNX produced.; half-life [7, 18]: 8.52 h
CC(=O)OCCN(CCOC(C)=O)CC(=O)OC(C)(C)C(=O)OCC(=O)O[C@]1(C)CC[C@@]2(C)[C@@H](CC[C@@H]3[C@@H]2CC[C@]2(C)[C@@H](C(C)=O)CC[C@@H]32)C1 [Compound 229] | 11 (≈ 15.6 µM) | 22 (≈ 31.2 µM) | – | – | – | – | – | – | – | – | – | – | – | 6.1 | 227 | 1 | – | 224 | 6.2 | 1 | –
CC(=O)OCCN(C)CC(=O)OC(C)(C)C(=O)OCC(=O)O[C@]1(C)CC[C@@]2(C)[C@@H](CC[C@@H]3[C@@H]2CC[C@]2(C)[C@@H](C(C)=O)CC[C@@H]32)C1 [Compound 242] | – | – | – | – | – | – | – | – | No GNX produced | 0.55 | – | – | – | – | – | – | – | – | – | – | SIF (% remain, 60 min) ([2]; simulated gi fluid, 1 h, pH 6.8): 29%; half-life ([2]; simulated gi fluid, pH 6.8): 146 min; Dog plasma t90 ([4]; dog): 578 min; Observations: stability / GNX production in dog plasma ([4]; dog plasma): No GNX produced; half-life ([4]; dog plasma): 64 h; Human plasma t90 ([5]; human): 4.99 min; half-life ([6]; human, microsomes): 1.41 min; microsomal CLint ([6]; human, microsomes): 982 µL/min/mg; Human Liver Microsomal Stability no NADPH, % remain 1 h ([6]; human, microsomes): 0.26%; SGF (% remain, 60 min) ([7]; simulated gi fluid, 1 h, pH 1.2): 99.1%; half-life ([7]; simulated gi fluid, pH 1.2): 76.6 h; half-life ([8]; dog, microsomes): 2.07 min; microsomal CLint ([8]; dog, microsomes): 668 µL/min/mg; Dog Liver Microsomal Stability no NADPH, % remain 1 h ([8]; dog, microsomes): 0.89%
CC(=O)[C@H]1CC[C@H]2[C@@H]3CC[C@H]4C[C@](C)(O)CC[C@]4(C)[C@H]3CC[C@]12C [ganaxolone, Ganaxolone] | 4 (≈ 12 µM) | 2 (≈ 6.01 µM) | 94.6 | – | 12 | 116 | 98.0 | 211.0 | – | 23.4 | 94.2 | – | 10.4 | 12.6 | 110 | 99.0 | 95.6 | 27.8 | 49.8 | 43.6 | Dog plasma t90 ([4]; dog plasma, 2 μg/mL, 37° C.): 564 min; half-life [4, 13]: 62.4 h

From patent publication US20250034201A1, “PRODRUGS OF GANAXOLONE” (priority 2022, published 2025)
